Measurements taken from US20220023401A1 (priority 2020, published 2022).
“And” between values parts separate entries of the source, which are not always exact repeats. Identical values can stand only once.

What was measured:
[1] = tested on: HBsAg2 Th (SEQ ID NO: 45); parameters: species or system guinea pigs; settings: guinea pig, in vivo
MvF4 Th (SEQ ID NO: 44) = tested on: MvF4 Th (SEQ ID NO: 44); parameters: species or system guinea pigs; settings: guinea pig, in vivo
Aβ1-42 = tested on: Aβ1-42; parameters: species or system guinea pigs; settings: guinea pig, in vivo
[2] = tested on: sera from vaccinated baboons (anti-Aβ antibodies); format: binding
[3] = tested on: antisera from immunized Cynomolgus macaques; format: binding; parameters: unit not given here
baboon anti-Aβ antibody = format: binding, baboons
[4] = tested on: Peripheral blood mononuclear cells (PBMC); format: cell-based, human
[5] = tested on: Peripheral Blood Mononuclear Cells (PBMCs); format: cell-based, Cynomolgus macaque
[6] = tested on: Peripheral blood mononuclear cells (PBMC); format: cell-based, human; remark: listed apart in the source

Aβ1-14-ϵK-HBsAg2 Th [SEQ ID NO: 63]
HBsAg2 Th ELISA (SEQ ID NO: 45) Log10 Titer, Geomean [1]: 0.375 Log10
MvF4 Th ELISA (SEQ ID NO: 44) Log10 Titer (MvF4 Th (SEQ ID NO: 44)): 0.575 Log10 and 0.423 Log10 and 0.380 Log10 and 0.279 Log10 and 0.336 Log10 and 0.425 Log10
MvF4 Th ELISA (SEQ ID NO: 44) Log10 Titer, Geomean (MvF4 Th (SEQ ID NO: 44)): 0.393 Log10
reactivity against the two T helper epitopes (SEQ ID NOs: 44 and 45) (MvF4 Th (SEQ ID NO: 44)): little or no reactivity
Aβ1-42 ELISA (SEQ ID NO: 1) Log10 Titer (Aβ1-42): 3.596 Log10 and 3.653 Log10 and 3.696 Log10 and 3.681 Log10 and 3.836 Log10 and 3.744 Log10
Aβ1-42 ELISA (SEQ ID NO: 1) Log10 Titer, Geomean (Aβ1-42): 3.700 Log10

HQKLVFFAED (PEPTIDE (1)..(10) Abeta 14-23 or APP 770(H685-D694); listed as Homo sapiens) [SEQ ID NO: 29]
ELISA Titer (Log10) [2]: 0.18 Log10 and 0.21 Log10 and 0.13 Log10
Specificity analysis of antisera (ELISA reactivity with peptide) [3]: 0.050 and 0.058 and 0.047

ISEVKMDAEF (PEPTIDE (1)..(10) Abeta -6-4 or APP 770(I666-F675); listed as Homo sapiens) [SEQ ID NO: 11]
ELISA Titer (Log10) [2]: 0.20 Log10 and 0.15 Log10 and 0.13 Log10
Specificity analysis of antisera (ELISA reactivity with peptide) [3]: 0.055 and 0.058 and 0.063 and 0.062

GYEVHHQKLV (PEPTIDE (1)..(10) Abeta 9-18 or APP 770(G680-V689); listed as Homo sapiens) [SEQ ID NO: 24]
ELISA Titer (Log10) [2]: 0.13 Log10 and 0.27 Log10 and 0.19 Log10 and 0.12 Log10
Specificity analysis of antisera (ELISA reactivity with peptide) [3]: 0.055 and 0.067 and 0.052 and 0.059

HDSGYEVHHQ (PEPTIDE (1)..(10) Abeta 6-15 or APP 770(H677-Q686); listed as Homo sapiens) [SEQ ID NO: 21]
Specificity analysis of antisera (ELISA reactivity with peptide) [3]: 0.266 and 0.494 and 0.419 and 0.332

SEVKMDAEFR (PEPTIDE (1)..(10) Abeta -5-5 or APP 770(S667-R676); listed as Homo sapiens) [SEQ ID NO: 12]
ELISA Titer (Log10) [2]: 0.21 Log10 and 0.24 Log10 and 0.16 Log10 and 0.13 Log10
Specificity analysis of antisera (ELISA reactivity with peptide) [3]: 0.056 and 0.053 and 0.054 and 0.050

TEEISEVKMD (PEPTIDE (1)..(10) Abeta -9-1 or APP 770(T663-D672); listed as Homo sapiens) [SEQ ID NO: 8]
ELISA Titer (Log10) [2]: 0.23 Log10 and 0.26 Log10 and 0.16 Log10 and 0.15 Log10
Specificity analysis of antisera (ELISA reactivity with peptide) [3]: 0.075 and 0.084 and 0.061 and 0.078

EFRHDSGYEV (PEPTIDE (1)..(10) Abeta 3-12 or APP 770(E674-V683); listed as Homo sapiens) [SEQ ID NO: 18]
ELISA Titer (Log10) [2]: 0.24 Log10 and 0.30 Log10 and 0.18 Log10
Percent (%) Inhibition ELISA after peptide pre-absorption of sera (baboon anti-Aβ antibody): 0% and 1% and 3%
Specificity analysis of antisera (ELISA reactivity with peptide) [3]: 0.047 and 0.060 and 0.042 and 0.052

MDAEFRHDSG (PEPTIDE (1)..(10) Abeta -1-9 or APP 770(M671-G680); listed as Homo sapiens) [SEQ ID NO: 16]
ELISA Titer (Log10) [2]: 0.26 Log10 and 0.32 Log10 and 0.16 Log10 and 0.17 Log10
Percent (%) Inhibition ELISA after peptide pre-absorption of sera (baboon anti-Aβ antibody): 8%
Specificity analysis of antisera (ELISA reactivity with peptide) [3]: 0.056 and 0.061 and 0.051

FRHDSGYEVH (PEPTIDE (1)..(10) Abeta 4-13 or APP 770(F675-H684); listed as Homo sapiens) [SEQ ID NO: 19]
ELISA Titer (Log10) [2]: 0.20 Log10 and 0.40 Log10 and 0.22 Log10 and 0.30 Log10
Specificity analysis of antisera (ELISA reactivity with peptide) [3]: 0.085 and 0.076 and 0.066 and 0.096

EISEVKMDAE (PEPTIDE (1)..(10) Abeta -7-3 or APP 770(E665-E674); listed as Homo sapiens) [SEQ ID NO: 10]
ELISA Titer (Log10) [2]: 0.23 Log10 and 0.25 Log10 and 0.16 Log10 and 0.14 Log10
Specificity analysis of antisera (ELISA reactivity with peptide) [3]: 0.060 and 0.056 and 0.064 and 0.053

KMDAEFRHDS (PEPTIDE (1)..(10) Abeta -2-8 or APP 770(K670-S679); listed as Homo sapiens) [SEQ ID NO: 15]
ELISA Titer (Log10) [2]: 0.26 Log10 and 0.36 Log10 and 0.41 Log10 and 0.51 Log10

SGYEVHHQKL (PEPTIDE (1)..(10) Abeta 8-17 or APP 770(S679-L688); listed as Homo sapiens) [SEQ ID NO: 23]
Specificity analysis of antisera (ELISA reactivity with peptide) [3]: 0.097 and 0.071 and 0.077 and 0.082

phytohaemagglutinin [PHA]
Mean stimulation index, Difference [4]: −0.98
Mean stimulation index, Week 0 [4]: 28.73
Mean stimulation index, Week 16 [4]: 27.75
proliferation response by lymphocytes when added to the culture medium ([4]; 10 μg/mL): positive proliferation responses
IL-2 cytokine concentration [5]: 97.5 ± 6.6 pg/mL and 90.6 ± 12.4 pg/mL and 96.1 ± 13.3 pg/mL
IL-6 cytokine concentration [5]: 69.1 ± 12.0 pg/mL and 70.6 ± 15.7 pg/mL and 66.2 ± 7.3 pg/mL
TNF-α cytokine concentration [5]: 91.0 ± 29.1 pg/mL and 96.1 ± 22.2 pg/mL and 89.0 ± 13.7 pg/mL
IFN-γ mean cytokine concentration, Week 0 [6]: >320.00 pg/mL
IFN-γ mean cytokine concentration, Week 16 [6]: >318.91 pg/mL
IL-2 mean cytokine concentration, Week 0 [6]: 10.38^7 pg/mL
IL-2 mean cytokine concentration, Week 16 [6]: 12.84^7 pg/mL
IL-6 mean cytokine concentration, Week 0 [6]: >320.00 pg/mL
IL-6 mean cytokine concentration, Week 16 [6]: >320.00 pg/mL
IL-10 mean cytokine concentration, Week 0 [6]: 173.83 pg/mL
IL-10 mean cytokine concentration, Week 16 [6]: >162.77 pg/mL
TNF-α mean cytokine concentration, Week 0 [6]: >313.01 pg/mL
TNF-α mean cytokine concentration, Week 16 [6]: >300.87 pg/mL

EEISEVKMDA (PEPTIDE (1)..(10) Abeta -8-2 or APP 770(E664-A673); listed as Homo sapiens) [SEQ ID NO: 9]
ELISA Titer (Log10) [2]: 0.24 Log10 and 0.30 Log10 and 0.21 Log10 and 0.22 Log10
Specificity analysis of antisera (ELISA reactivity with peptide) [3]: 0.082 and 0.092 and 0.081 and 0.076

VKMDAEFRHD (PEPTIDE (1)..(10) Abeta -3-7 or APP 770(V669-D678); listed as Homo sapiens) [SEQ ID NO: 14]
ELISA Titer (Log10) [2]: 0.27 Log10 and 0.46 Log10 and 0.48 Log10 and 0.55 Log10
Specificity analysis of antisera (ELISA reactivity with peptide) [3]: 0.068 and 0.053 and 0.061 and 0.054

EVKMDAEFRH (PROPEP (1)..(10) Abeta -4-6 or APP 770(E668-H677); listed as Homo sapiens) [SEQ ID NO: 13]
ELISA Titer (Log10) [2]: 0.19 Log10 and 0.23 Log10 and 0.16 Log10 and 0.14 Log10
Specificity analysis of antisera (ELISA reactivity with peptide) [3]: 0.046 and 0.047 and 0.054

YEVHHQKLVF (PEPTIDE (1)..(10) Abeta 10-19 or APP 770(Y681-F690); listed as Homo sapiens) [SEQ ID NO: 25]
ELISA Titer (Log10) [2]: 0.16 Log10 and 0.43 Log10 and 0.15 Log10 and 0.22 Log10
Specificity analysis of antisera (ELISA reactivity with peptide) [3]: 0.092 and 0.069 and 0.058

RHDSGYEVHH (PEPTIDE (1)..(10) Abeta 5-14 or APP 770(R676-H685); listed as Homo sapiens) [SEQ ID NO: 20]
ELISA Titer (Log10) [2]: 0.23 Log10 and 0.34 Log10 and 0.27 Log10 and 0.41 Log10
Specificity analysis of antisera (ELISA reactivity with peptide) [3]: 0.296 and 0.400 and 0.453 and 0.461

HHQKLVFFAE (PEPTIDE (1)..(10) Abeta 13-22 or APP 770(H684-E693); listed as Homo sapiens) [SEQ ID NO: 28]
ELISA Titer (Log10) [2]: 0.19 Log10 and 0.22 Log10 and 0.13 Log10 and 0.12 Log10
Specificity analysis of antisera (ELISA reactivity with peptide) [3]: 0.044 and 0.052 and 0.046 and 0.032

AEFRHDSGYE (PEPTIDE (1)..(10) Abeta 2-11 or APP 770(A673-E682); listed as Homo sapiens) [SEQ ID NO: 17]
ELISA Titer (Log10) [2]: 0.25 Log10 and 0.35 Log10 and 0.19 Log10
Percent (%) Inhibition ELISA after peptide pre-absorption of sera (baboon anti-Aβ antibody): 0%
Specificity analysis of antisera (ELISA reactivity with peptide) [3]: 0.058 and 0.059 and 0.054 and 0.060

QKLVFFAEDV (PEPTIDE (1)..(10) Abeta 15-24 or APP 770(Q686-V695); listed as Homo sapiens) [SEQ ID NO: 30]
Specificity analysis of antisera (ELISA reactivity with peptide) [3]: 0.043 and 0.055 and 0.062 and 0.059

Aβ1-14-ϵK-KKK-MvF4 Th [SEQ ID NO: 62]
HBsAg2 Th ELISA (SEQ ID NO: 45) Log10 Titer, Geomean [1]: 0.397 Log10
MvF4 Th ELISA (SEQ ID NO: 44) Log10 Titer (MvF4 Th (SEQ ID NO: 44)): 0.268 Log10 and 0.216 Log10 and 0.196 Log10 and 0.179 Log10 and 0.332 Log10 and 0.286 Log10
MvF4 Th ELISA (SEQ ID NO: 44) Log10 Titer, Geomean (MvF4 Th (SEQ ID NO: 44)): 0.240 Log10
reactivity against the two T helper epitopes (SEQ ID NOs: 44 and 45) (MvF4 Th (SEQ ID NO: 44)): little or no reactivity
Aβ1-42 ELISA (SEQ ID NO: 1) Log10 Titer, Geomean (Aβ1-42): 4.208 Log10
